The values below come from patent US20060270727A1, “Small molecule therapeutics and uses therefor” (priority 2005, published 2006).

Test [1] deals with frataxin mRNA in GM15851 normal lymphoid cell line. The experiment in a line: qRT-PCR of frataxin mRNA, normal cell line. The format is cell-based, human. The text has this: GAA Specific Polyamides Up Regulate Frataxin mRNA and Protein. To assess whether polyamides alleviate transcription inhibition caused by expanded GAA repeats in the frataxin gene, quantitative real time/reverse transcriptase PCR (qRT-PCR) was used to monitor frataxin mRNA levels in the GM15850 and GM15851 lymphoid cell lines described above; levels of glyceraldehyde 3-phosphate dehydrogenase (GAPDH) mRNA were used as an internal control for each RNA sample; see Example 8. No differences in GAPDH were found between the two cell lines. […] No changes in frataxin mRNA levels were observed on shorter incubation times.
Cell Culture. […] Cell growth and morphology were monitored by phase contrast microscopy and viability by trypan blue exclusion and an ATP assay (ApoSENSOR™, BioVision). […]
Real-Time Quantitative RT-PCR. Real-time quantitative RT-PCR (qRT-PCR) analysis was performed essentially as previously described (Chuma, et al., 2003, Hepatology 37:198-207), using the following primers for the frataxin gene: […]
RNA was standardized by quantification of GAPDH mRNA (Pattyn et al., 2003, Nucleic Acids Res. 31:122-123), and all values are expressed relative to GAPDH. qRT-PCR was performed using iScript One-Step RT-PCR kit with SYBR green (Biorad). Statistical analysis was performed on three independent quantitative RT-PCR experiments for each RNA sample.

Test [2] deals with GAA·TTC duplex repeats in the frataxin gene; radiolabeled PCR product containing a (GAA)6 sequence. The experiment in a line: Quantitative DNase I footprinting on (GAA)6 DNA. The format is binding. The text has this: Targeting GAA Repeat DNA with Polyamides. β-Alanine linked polyamides FA1-FA6 were synthesized (see Example 6) with sequence, theoretical DNA binding site, theoretical DNA binding site SEQ ID NO: ______) and binding affinity as shown in Table 1. […] Those of skill in the art will recognize that this value may be an underestimation of the affinity of this molecule for GAA repeat DNA since the KD measurements are limited by a minimum DNA concentration of ˜2 pM in the binding reaction. Radiolabeling of nucleic acid incorporated γ^32P ATP and polynucleotide kinase used standard procedures.
Polyamlde Synthesis and Characterization. Polyamides were synthesized by solid phase methods (Urbach & Dervan, Id.; Baird & Dervan, 1996, J. Am. Chem. Soc. 118:6141-6146) and their identity and purity verified by MALDI-TOF MS and analytical HPLC, using methods well known in the art. Fluorescent conjugates were prepared by coupling BODIPY (Molecular Probes) to the carboxyl-terminus (Best et al., 2003, Proc. Natl. Acad. Sci. U.S.A. 100:12063-12068). Binding affinities for match and mismatch sites were determined by quantitative DNase I footprinting (Trauger & Dervan, Id). A plasmid harboring six GAA repeats was constructed by cloning the oligonucleotide
in the pCR2.1 TOPO vector (Invitrogen, Calif.), and a 117 bp singly end-labeled PCR product was generated from this plasmid with the following oligonucleotides:
where the second oligonucleotide was labeled with γ-^32P ATP and polynucleotide kinase, using standard procedures, to generate a PCR product labeled on the GAA strand. A 204 bp singly end-labeled PCR product was derived from plasmid pMP142 DNA, containing 33 GAA repeats (Ohshima et al., Id.), with following oligonucleotides: […]

In test [3] the test system is GM15850 FRDA lymphoid cells. The experiment in a line: DNA microarray of global gene expression, FRDA cells. The format is cell-based, human. The settings on record: for number of genes with affected mRNA levels: P≦0.005; for gene expression profile approaching that of untreated GM15851 cells, in words: FA1 at 1 μM, FA2 at 2 μM. As for the experimental part:
Effects of Polyamides on Global Gene Expression. DNA microarray analyses (see Example 10) were performed with RNA isolated from GM15850 FRDA and GM15851 normal lymphoid cells that were either untreated or treated with polyamides FA1 (at 1 and 2 μM) or FA2 (at 2 μM) for 7 days on Affymetrix Human Genome U133 Plus 2.0 GeneChips®. These chips contain […] oligonucleotides representing all or nearly all of the genes in the human genome). Experiments were conducted according to manufacturer guidelines. […] Although more genes were judged affected by FA1 at 1 μM than at 2 μM, this difference is largely due to genes whose mRNA levels change by less than […] in either direction, and thus are not highly significant. At 2 μM FA1, 15 genes were increased in expression by greater than 50% and one gene was decreased by 45%. […] For GM15851 cells, two genes were up regulated by FA1, and no genes were down regulated. (Note that the probability that the genes affected in GM15851 cells would be judged significant by chance at P≦0.005 is 0.8-1.0, based on analysis with BRB ArrayTools). […] Strikingly, binding sites for FA1 (5′-AAGAAGAAG-3′, SEQ ID NO: ______) are present in 18/20 genes whose mRNA levels are increased by 1.2-fold or greater in GM15850 cells, although this sequence would be expected to appear at random only once per 262,000 bp in genomic DNA.
DNA Microarrays. FRDA and control lymphoid cells (i.e., lines GM15850 and GM15851, respectively) were incubated with polyamides FA1 (at 1 or 2 μM) or FA2 (at 2 μM), or in the absence of polyamide, in triplicate for seven days prior to RNA purification and microarray analysis. Affymetrix U133A Plus 2.0 GeneChips® were hybridized in groups of eight for each of the three replicates. Raw GeneChip® data were normalized with RMAExpress (Bolstad et al., 2003, Bioinformatics 19:185-193) and the normalized data was filtered to remove probesets called absent on 24 of 24 chips from class comparisons. The Affymetrix probeset-level data was imported to BRB Arraytools (v3.3.0 Beta 3a) selecting the U133 chips used in the experiment and leaving all filters off. For class comparisons between groups of arrays, unpaired samples were used and the random variance model was selected, with the univariate significance threshold set to 0.005. The restrictions for the univariate test were maintained as the default values of 10 for the maximum number of false discovered genes, 0.1 for the maximum proportion of false discoveries, and a 90% confidence level. Because of poor data correlation in one set of replicates, class comparisons were performed using all chips for the control group versus two of the three replicates for the treatment group (i.e., five groups are the minimum number required for class comparisons).

Where [4] appears, read: (GAA)6 DNA, values in text, read-out: apparent dissociation constant (KD).
Where [5] appears, read: quantitative DNase I footprinting, mean and standard deviation, minimum of two determinations, read-out: Binding affinity (KD).

Where two headings read alike, the source gives them in different places.

Consider `CN(C)CCCNC(=O)CCNC(=O)c1nc(NC(=O)CCNC(=O)c2cc(NC(=O)c3nc(NC(=O)CCNC(=O)c4cc(NC(=O)c5nccn5C)cn4C)cn3C)cn2C)cn1C` [FA1, ImPyβImPyβImβDp], for which the “effect on frataxin mRNA levels, in words” value in test [1] is “did not change frataxin mRNA levels”. For the same compound, in test [2] (setting [4]), the Kd stood at 0.1 nM. Moreover, in test [2] (setting [5]), the Kd turned out to be 0.11 ± 0.02 nM. In addition, the “genes with comparable changes (>50% increase or 45% decrease) in mRNA levels” value in test [3] (1 μM) is on record as “three genes”. Also, in test [3] (1 μM, 7 days), the “number of genes with affected mRNA levels” value (“number of genes” below) is 51 genes. Further, in test [3] (2 μM), the “frataxin mRNA level as % of that found in GM15851 cells (microarray)” value was 42%, the “genes decreased in expression (by 45%)” value is “one gene” and the “genes increased in expression by greater than 50%” value came out at 15 genes. For the same compound, in test [3] (2 μM, 7 days), the “increase of frataxin mRNA (microarray)” value amounted to 2.5 fold and the “number of genes” value was 16 genes. In addition, the “slope of gene expression profile correlation vs untreated GM15851 cells” value in test [3] (2 μM, untreated FRDA cells 0.97) worked out at 0.69. In addition, in test [3], the “gene expression profile approaching that of untreated GM15851 cells, in words” value is given as “seen to a lesser degree”.

`CN(C)CCCNC(=O)CCNC(=O)c1cc(NC(=O)CCNC(=O)c2nc(NC(=O)c3nc(NC(=O)CCNC(=O)c4cc(NC(=O)c5nccn5C)cn4C)cn3C)cn2C)cn1C` [FA2, ImPyβImImβPyβDp]: the “effect on frataxin mRNA levels, in words” value in test [1] is “no change in frataxin mRNA”. Further, in test [2] (setting [4]), the Kd is above 100 nM. Besides, the “reduction of binding affinity vs match polyamide” value in test [2] (mismatch vs match polyamide (FA2 vs FA1, FA4 vs FA3)) is on record as “greater than three orders of magnitude”. The Kd in test [2] (setting [5]) was above 100 nM. Further, in test [3] (2 μM, 7 days), the “transcript levels for frataxin (microarray)” value was “not changed” and the “number of genes” value is recorded as “three genes”. In addition, the “gene expression profile approaching that of untreated GM15851 cells, in words” value in test [3] is recorded as “not seen”.
